24 compounds from ChEMBL document CHEMBL1687873, “Virtual screening studies on HIV-1 reverse transcriptase inhibitors to design potent leads” (Eur J Med Chem, 2011) can be followed below.

The term IC50 denotes the concentration that gives 50% inhibition. Read a low IC50 as higher potency.

Each structure is given as a SMILES string.

This experiment concerns the target Human immunodeficiency virus type 1 reverse transcriptase (Human immunodeficiency virus 1, UniProt Q72547). In words: Inhibition of Human immunodeficiency virus 1 reverse transcriptase.
`CC1=C(Sc2ccccc2)C(COCc2ccccc2)C(=O)NC1=O` (centres undefined) gave an IC50 of 111 nM.

The compound `CCOCC1C(=O)NC(=O)C(CC)=C1Sc1cc(C)cc(C)c1` (centres undefined) gave an IC50 of 210 nM.

Compound `CCOCC1C(=O)NC(=O)C(CC)=C1Sc1ccccc1` (centres undefined) yielded an IC50 of 100 nM.

`CC1=C(Sc2cccc(Br)c2)C(COCCO)C(=O)NC1=O` (centres undefined) came in with an IC50 of 3.1 nM.

`CC1=C(Sc2cccc(I)c2)C(COCCO)C(=O)NC1=O` (centres undefined) came in with an IC50 of 4 nM.

`CC1=C(Sc2cccc(O)c2)C(COCCO)C(=O)NC1=O` (centres undefined) had an IC50 of 6.9 nM.

`CCC1=C(Sc2cc(C)cc(C)c2)C(COCCO)C(=O)NC1=O` (centres undefined) had an IC50 of 80 nM.

For `CC1=C(Sc2cc(C)cc(C)c2)C(COCCO)C(=O)NC1=O` (centres undefined), the IC50 is 24 nM.

With `CCC1=C(Sc2ccccc2)C(COCC2CCCCC2)C(=S)NC1=O` (centres undefined), inhibition was half-maximal at 375 nM (IC50).

In turn, `CCC1=C(Sc2ccccc2)C(COC2CCCCC2)C(=S)NC1=O` (centres undefined) came in with an IC50 of 240 nM.

In turn, `CC1=C(Sc2cccc(C(F)(F)F)c2)C(COCCO)C(=O)NC1=O` (centres undefined) showed an IC50 of 0.52 nM.

Turning to `CCOCC1C(=S)NC(=O)C(CC)=C1Sc1cc(C)cc(C)c1` (centres undefined), 300 nM corresponded to half-maximal inhibition (IC50).

For the compound `Cc1cc(C)cc(SC2=C(C(C)C)C(=O)NC(=O)C2COCCO)c1` (centres undefined), it took 54 nM to reach half-maximal inhibition (IC50).

In the case of `COc1cccc(SC2=C(C)C(=O)NC(=O)C2COCCO)c1` (centres undefined), it took 20 nM to reach half-maximal inhibition (IC50).

In turn, `CCC1=C(Sc2ccccc2)C(COCc2ccc(Cl)cc2)C(=S)NC1=O` (centres undefined) showed an IC50 of 404 nM.

Turning to `CCC1=C(Sc2ccccc2)C(COCCc2ccccc2)C(=S)NC1=O` (centres undefined), the IC50 amounted to 473 nM.

With `CCOCC1C(=S)NC(=O)C(CC)=C1Sc1ccccc1` (centres undefined), the IC50 was determined as 137 nM.

`CC1=C(Sc2cccc([N+](=O)[O-])c2)C(COCCO)C(=O)NC1=O` (centres undefined): the IC50 was 5.4 nM.

`CC1=C(Sc2cccc(Cl)c2)C(COCCO)C(=O)NC1=O` (centres undefined) showed an IC50 of 2.2 nM.

Regarding `CCC1=C(Sc2ccccc2)C(COCc2ccc(C)cc2)C(=S)NC1=O` (centres undefined), inhibition was half-maximal at 422 nM (IC50).

Compound `CCOCC1C(=O)NC(=O)C(CC)=C1Sc1cc(Cl)cc(Cl)c1` (centres undefined) yielded an IC50 of 597 nM.

On to `CC1=C(Sc2cc(Cl)cc(Cl)c2)C(COCCO)C(=O)NC1=O` (centres undefined), for which the IC50 is 27 nM.

Take `CC1=C(Sc2cccc(F)c2)C(COCCO)C(=O)NC1=O` (centres undefined): half-maximal inhibition (IC50) required 1.7 nM.

`CC(C)C1=C(Sc2ccccc2)C(COCCO)C(=O)NC1=O` (centres undefined) had an IC50 of 31 nM.
